In patent US20240270762A1, “PENICILLIN-BINDING PROTEIN INHIBITORS” (priority 2021, published 2024) one finds MIC, IC50 and EC50 data, which are given here for five compounds.

pEC50, pIC50: −log10 of the molar value. In brackets after ≈: the same amount, converted by molar mass. Where two headings read alike, the source gives them in different places.

One assay relates to A. baumannii CDC-0036. Description: microbe, parasite or virus in culture. It counts as cell-based. To be noted: Acinetobacter baumannii, CDC0036, read-out: Minimum inhibitory concentration (MIC), A. baumannii CDC-0036.
For assay [1], the system named is B. thailandensis ATCC 700388. Nature of the assay: microbe, parasite or virus in culture. The format is cell-based. To be noted: Burkholderia thailandensis, ATCC700388, read-out: Minimum inhibitory concentration (MIC), B. thailandensis ATCC 700388.
A further assay deals with A. baumannii CDC-0033. Description: microbe, parasite or virus in culture. It counts as cell-based. The conditions noted are these: Acinetobacter baumannii, CDC0033, read-out: Minimum inhibitory concentration (MIC), A. baumannii CDC-0033.
Assay [2] has as its target T1, PBP3 from Pseudomonas aeruginosa (PAO1) (Pseudomonas aeruginosa, UniProt G3XD46).
T1 construct: made in house
Description: Bocillin-FL fluorescence polarization competition binding, P. aeruginosa PBP3. To be noted: Binding affinity to P. aeruginosa PBP3; fluorescence polarization competition binding assay using Bocillin-FL; read-out: P. aeruginosa PBP3 Potency. An excerpt:
To determine the ability of boronic acid-based test PBP inhibitors to bind Penicillin Binding Proteins (PBPs), Bocillin-FL (fluorescently-labeled penicillin V; ThermoFisher Scientific) was used in a fluorescence polarization (FP) competition binding assay to assess inhibitor binding to PBP3 from Escherichia coli (K-12), PBP3 from Pseudomonas aeruginosa (PAO1), PBP1a and PBP3 from Acinetobacter baumannii (ATCC 19606), and PBP2 from Neisseria gonorrhoeae (FA19). PBPs were cloned and purified as described previously (E. coli PBP3, King, D. T, et al., ACS Infectious Diseases 2015, 1, 175-184; P. aeruginosa PBP3, Han et. al., PNAS 2010, 107 (51), 22002-22007; A. baumannii PBPs, Penwell et. al., Antimicrob. Agents Chemother. 2015, 59 (3), 1680-1689; N. gonorrhoeae PBP2, Singh et. al., J. Biol. Chem. 2019, 294 (38), 14020-14032). To establish assay conditions for competition binding, enzyme titration/saturation binding experiments were initially performed. Bocillin-FL was prepared at 0.2 μM in a buffer comprised of 50 mM Hepes (pH 8.0), 300 mM NaCl and 10% (v/v) glycerol for reactions with E. coli, P. aeruginosa and N. gonorrhoeae PBPs, and 25 mM Tris (pH 8.0), 200 mM NaCl, 10% (v/v) glycerol and 0.005% (v/v) Tween 20 for reactions with A. baumannii PBPs. Saturation binding was performed by mixing 40 μl of PBP solutions ranging in concentrations from 0-24 μM with 40 μl of the 0.2 μM Bocillin-FL solution, in individual wells of a black 384-well microplate. FP was measured immediately upon mixing (Excitation, 490 nm; Emission, 520 nm; g-factor, 0.96), using a Cytation3 (BioTek) microplate reader and measured continuously for up to 120 minutes. The FP response stabilized after 15 minutes for P. aeruginosa and A. baumannii PBP3, 30 minutes for E. coli PBP3 and A. baumannii PBP1a, and less than 1 minute for N. gonorrhoeae PBP2. […] The competition binding assay (80 μl final volume) was validated using beta-lactams and PBPs at final concentrations of: 1.5 μM for E. coli PBP3; 0.75 μM for P. aeruginosa PBP3; 1 μM for A. baumannii PBP1a; 0.2 μM for A. baumannii PBP3; and 0.25 μM for N. gonorrhoeae PBP2. Bocillin-FL was at 0.1 μM (0.05 μM with A. baumannii PBP1a) and beta-lactam concentrations ranged from 0-1,000 μM. E. coli PBP3 was incubated with increasing concentrations of ampicillin in a black 384-well microplate (Corning) for 30 minutes. P. aeruginosa PBP3 was incubated for 15 minutes with aztreonam, whereas A. baumannii PBP1a and PBP3 were incubated for 15 minutes with meropenem, and then Bocillin-FL was added followed immediately by the FP measurement for up to 60 minutes. […] The beta-lactam potency was reported as the concentration of beta-lactam required to reduce the amount of PBP bound-Bocillin-FL by 50% (EC50). […] The EC50 of aztreonam was determined to be <0.5 μM for P. aeruginosa PBP3. […] Binding assays for boronic acid PBP inhibitors were performed in an identical fashion for the respective PBPs.
Background: Polarisation of emitted light reports the rotation of a fluorescent probe.

In another assay the test system is A. baumannii ATCC 19606. Nature of the assay: microbe, parasite or virus in culture. The format is cell-based. To be noted: Acinetobacter baumannii, ATCC19606, read-out: Minimum inhibitory concentration (MIC), A. baumannii ATCC 19606.
A further assay relates to A. baumannii ATCC 17978. Description: microbe, parasite or virus in culture. It counts as cell-based. The conditions noted are these: Acinetobacter baumannii, ATCC17978, read-out: Minimum inhibitory concentration (MIC), A. baumannii ATCC 17978.
In assay [3] the test system is B. humptydooensis ATCC BAA-2767. Nature of the assay: microbe, parasite or virus in culture. The format is cell-based. To be noted: Burkholderia humptydooensis, ATCCBAA2767, read-out: Minimum inhibitory concentration (MIC), B. humptydooensis ATCC BAA-2767.
The next assay deals with T2, A. baumannii PBP1a (Acinetobacter baumannii, UniProt A0ABX6CK30).
T2 sequence (A0ABX6CK30 1-851): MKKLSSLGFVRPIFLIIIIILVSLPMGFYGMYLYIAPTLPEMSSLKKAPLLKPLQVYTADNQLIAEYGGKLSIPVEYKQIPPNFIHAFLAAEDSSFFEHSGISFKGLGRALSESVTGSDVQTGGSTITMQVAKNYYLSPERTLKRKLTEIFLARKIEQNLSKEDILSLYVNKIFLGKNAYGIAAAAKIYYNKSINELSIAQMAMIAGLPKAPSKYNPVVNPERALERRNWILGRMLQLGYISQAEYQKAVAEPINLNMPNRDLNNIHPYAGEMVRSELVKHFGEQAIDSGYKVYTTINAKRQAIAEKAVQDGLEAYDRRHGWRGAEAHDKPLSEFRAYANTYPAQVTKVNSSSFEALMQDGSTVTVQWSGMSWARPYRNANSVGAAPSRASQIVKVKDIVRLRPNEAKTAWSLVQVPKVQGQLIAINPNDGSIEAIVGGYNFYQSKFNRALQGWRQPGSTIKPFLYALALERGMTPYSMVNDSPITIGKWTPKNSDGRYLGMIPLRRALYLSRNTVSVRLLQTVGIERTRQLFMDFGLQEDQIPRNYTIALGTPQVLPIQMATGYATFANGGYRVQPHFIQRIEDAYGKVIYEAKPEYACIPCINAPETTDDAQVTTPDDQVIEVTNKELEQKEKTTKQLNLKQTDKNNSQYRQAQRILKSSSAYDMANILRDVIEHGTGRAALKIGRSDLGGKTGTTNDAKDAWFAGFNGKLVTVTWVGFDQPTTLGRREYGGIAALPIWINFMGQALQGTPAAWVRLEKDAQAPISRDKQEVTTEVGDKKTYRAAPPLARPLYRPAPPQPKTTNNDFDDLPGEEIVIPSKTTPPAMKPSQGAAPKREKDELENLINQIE
Description: Bocillin-FL competition binding via gel filtration, A. baumannii PBP1a. How it is done: (§1) Affinity to A. baumannii PBP1a and PBP2 was assessed a competitive equilibrium binding assay using Bocillin-FL as the reporter molecule. Enzyme was pre-incubated with increasing concentrations of inhibitors, prior to addition of Bocillin and further incubation for 15 minutes. PBP bound with Bocillin-FL was separated by gel filtration using 96-well Zeba Spin size exclusion plates, and the fluorescence measured. The inhibitor affinity (reported as the EC50) was determined by plotting the fraction of PBP bound with Bocillin-FL at each inhibitor concentration against the inhibitor concentration, and fitting the data to the following equation:
(§2) [formula] • where y is the fraction bound at a given inhibitor concentration, ymin is the fraction bound when the enzyme is completely inactivated, ymax is the maximum (uninhibited) fraction bound, n is the Hill coefficient, and x is the inhibitor concentration.

A further assay relates to B. pseudomallei Bp82. Nature of the assay: microbe, parasite or virus in culture. The conditions noted are these: Burkholderia pseudomallei, BP82, read-out: Minimum inhibitory concentration, B. pseudomallei Bp82. The format is cell-based.
In a further assay the test system is A. baumannii CDC-0045. Description: microbe, parasite or virus in culture. It counts as cell-based. The conditions noted are these: Acinetobacter baumannii, CDC0045, read-out: Minimum inhibitory concentration (MIC), A. baumannii CDC-0045.
The target in another assay is A. baumannii PBP2 (Acinetobacter baumannii, UniProt D0C8Z9). Description: Bocillin-FL competition binding via gel filtration, A. baumannii PBP2. As to the method:
as §1, §2
(Size exclusion chromatography separates by hydrodynamic size, large species first.)

In the next assay the test system is A. baumannii 1258916. Description: microbe, parasite or virus in culture. The format is cell-based, Acinetobacter baumannii. The conditions noted are these: Acinetobacter baumannii, 1258916, read-out: Minimum inhibitory concentration (MIC), A. baumannii 1258916.
Setting [4] is: competition binding assay using Bocillin-FL via gel filtration, read-out: A. baumannii PBP1a Potency.

A. baumannii PBP2, sequence (D0C8Z9 whole entry): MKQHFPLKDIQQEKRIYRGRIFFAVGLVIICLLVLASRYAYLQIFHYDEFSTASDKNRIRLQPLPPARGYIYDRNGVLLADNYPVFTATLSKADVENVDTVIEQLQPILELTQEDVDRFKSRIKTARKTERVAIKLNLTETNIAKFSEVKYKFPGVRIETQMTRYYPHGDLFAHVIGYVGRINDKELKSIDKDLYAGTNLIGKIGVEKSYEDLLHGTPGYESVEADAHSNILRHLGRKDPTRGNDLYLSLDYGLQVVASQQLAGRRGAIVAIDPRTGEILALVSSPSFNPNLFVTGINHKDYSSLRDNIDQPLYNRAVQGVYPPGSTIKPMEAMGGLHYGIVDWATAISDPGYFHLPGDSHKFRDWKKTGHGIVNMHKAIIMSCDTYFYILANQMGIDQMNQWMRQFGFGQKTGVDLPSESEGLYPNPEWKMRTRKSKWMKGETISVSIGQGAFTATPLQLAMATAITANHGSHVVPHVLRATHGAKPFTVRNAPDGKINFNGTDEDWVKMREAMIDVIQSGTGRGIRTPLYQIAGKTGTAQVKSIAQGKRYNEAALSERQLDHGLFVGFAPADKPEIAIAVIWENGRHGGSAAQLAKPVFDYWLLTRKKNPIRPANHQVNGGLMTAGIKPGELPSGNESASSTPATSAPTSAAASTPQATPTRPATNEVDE
T1 sequence (G3XD46 whole entry): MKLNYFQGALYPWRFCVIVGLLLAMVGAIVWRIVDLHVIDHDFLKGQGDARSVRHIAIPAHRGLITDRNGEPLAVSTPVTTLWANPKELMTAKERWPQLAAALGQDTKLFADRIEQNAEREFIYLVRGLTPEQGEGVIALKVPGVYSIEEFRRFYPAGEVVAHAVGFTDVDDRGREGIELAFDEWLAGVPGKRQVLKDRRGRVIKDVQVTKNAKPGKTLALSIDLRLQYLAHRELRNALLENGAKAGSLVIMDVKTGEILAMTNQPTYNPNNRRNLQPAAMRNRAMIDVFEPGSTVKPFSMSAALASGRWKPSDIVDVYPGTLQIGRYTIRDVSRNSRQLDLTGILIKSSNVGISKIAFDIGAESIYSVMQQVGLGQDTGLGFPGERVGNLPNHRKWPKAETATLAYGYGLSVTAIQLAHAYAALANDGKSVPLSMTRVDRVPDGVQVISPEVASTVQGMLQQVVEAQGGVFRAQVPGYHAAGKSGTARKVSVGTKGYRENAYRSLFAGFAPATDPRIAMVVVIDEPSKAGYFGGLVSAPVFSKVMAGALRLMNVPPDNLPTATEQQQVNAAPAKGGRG

`O=C(O)c1c(F)ccc2c1OB(O)[C@@H](NC(=O)[C@H](NC(=O)N1CCN(C3CCN(C(=O)Nc4cc(O)c(O)c(Cl)c4)CC3)C1=O)c1ccc(P(=O)(O)O)cc1)C2` (single isomer, unassigned) [Example 501]: the MIC was 2 to 4 µg/mL (≈ 2.44 to 4.88 µM) in the assay with A. baumannii CDC-0036; less than 1 µg/mL in assay [1]; 2 to 4 µg/mL (≈ 2.44 to 4.88 µM) in the assay with A. baumannii CDC-0033; less than 1 µg/mL in the assay with A. baumannii ATCC 19606; less than 1 µg/mL in the assay on A. baumannii ATCC 17978; less than 1 µg/mL in [3]. Also, the results for the MIC with B. pseudomallei Bp82, with A. baumannii CDC-0045 and with A. baumannii 1258916 were 2 to 4 µg/mL (≈ 2.44 to 4.88 µM), less than 1 µg/mL and 2 to 4 µg/mL (≈ 2.44 to 4.88 µM), respectively. Also, the pIC50 in assay [2] is more than 5.00. Also, the pEC50 at A. baumannii PBP1a (setting [4]) and at A. baumannii PBP2 was more than 5.00 throughout.

Consider `O=C(O)c1c(F)ccc2c1OB(O)[C@@H](NC(=O)C(NC(=O)N1CCN(C3CCN(Cc4ccc(O)cc4)CC3)C1=O)c1cc(F)c(O)c(O)c1Cl)C2` (single isomer, unassigned) [Example 609], for which the MIC (in assay [1]; in assay [3]; in the assay on B. pseudomallei Bp82) was less than 1 µg/mL each time. For the same compound, the figures for the pEC50 at A. baumannii PBP1a (setting [4]) and at A. baumannii PBP2 were more than 5.00 and 4.30 to 5.00, respectively.

Turning to `O=C(O)c1c(F)ccc2c1OB(O)[C@@H](NC(=O)C(NC(=O)N1CCN(C3CCN(Cc4ccc(O)c(F)c4)CC3)C1=O)c1cc(F)c(O)c(O)c1Cl)C2` (single isomer, unassigned) [Example 610], the MIC (in assay [1]; in assay [3]; in the assay with B. pseudomallei Bp82) was less than 1 µg/mL throughout. The pEC50 on A. baumannii PBP1a (setting [4]) was more than 5.00; at A. baumannii PBP2, 4.30 to 5.00.

In the case of `O=C(O)c1c(F)ccc2c1OB(O)[C@@H](NC(=O)C(NC(=O)N1CCN(C3CCN(Cc4cc(O)cc(O)c4)CC3)C1=O)c1cc(F)c(O)c(O)c1Cl)C2` (single isomer, unassigned) [Example 612], the MIC (in assay [1]; in [3]; in the assay with B. pseudomallei Bp82) was less than 1 µg/mL each time. For the same compound, the pEC50 is more than 5.00 on A. baumannii PBP1a (setting [4]) and 4.30 to 5.00 at A. baumannii PBP2.

On to `O=C(O)c1c(F)ccc2c1OB(O)[C@@H](NC(=O)C(NC(=O)N1CCN(C3CCN(Cc4cccc(O)c4)CC3)C1=O)c1cc(F)c(O)c(O)c1Cl)C2` (stereo partly drawn) [Example 605, (3R)-3-(2-(2-chloro-5-fluoro-3,4-dihydroxyphenyl)-2-(3-(1-(3-hydroxybenzyl)piperidin-4-yl)-2-oxoimidazolidine-1-carboxamido)acetamido)-7-fluoro-2-hydroxy-3,4-dihydro-2H-benzo[e][1,2]oxaborinine-8-carboxylic acid], for which the MIC (in [1]; in [3]; in the assay with B. pseudomallei Bp82) was less than 1 µg/mL throughout. Further, the values for the pEC50 on A. baumannii PBP1a and at A. baumannii PBP2 were more than 5.00 and 4.30 to 5.00, respectively.
